Literature values, collected in patent publication US20240382549A1, “USE OF MULBERRY EXTRACT FOR IMPROVING SLEEP QUALITY AND/OR SUBSEQUENT BEHAVIOURAL OUTCOMES” (SOCIETE DES PRODUITS NESTLE S.A., priority 2021, published 2024).

Conditions: earlier study; 12.5 mg DNJ in capsule, co-ingestion with maltodextrin

For `OC[C@H]1NC[C@H](O)[C@@H](O)[C@@H]1O` [DNJ, 1-deoxynojirimycin], the “reduction of PPGR” value is given as 14%.
